No end group written: not given here.

The experiment deals with T1, LCAT (purified from human plasma) (Homo sapiens, UniProt P04180).
T1 construct: from tissue; host or cells: human plasma
T1 sequence (P04180 25-440): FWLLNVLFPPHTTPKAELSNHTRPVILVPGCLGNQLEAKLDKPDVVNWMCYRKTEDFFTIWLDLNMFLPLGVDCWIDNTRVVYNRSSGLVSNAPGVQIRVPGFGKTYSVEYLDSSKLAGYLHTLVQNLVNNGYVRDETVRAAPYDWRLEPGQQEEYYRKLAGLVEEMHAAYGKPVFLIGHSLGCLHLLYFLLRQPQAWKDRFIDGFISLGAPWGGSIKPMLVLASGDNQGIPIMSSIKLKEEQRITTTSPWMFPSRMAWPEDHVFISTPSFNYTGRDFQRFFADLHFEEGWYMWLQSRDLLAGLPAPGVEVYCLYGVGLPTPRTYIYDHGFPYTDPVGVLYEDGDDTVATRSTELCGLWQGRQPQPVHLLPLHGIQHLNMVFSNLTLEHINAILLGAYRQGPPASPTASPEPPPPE
The experiment can be described thus: LCAT activation assay. Format: biochemical. Particulars: LCAT activation as compared with native human ApoA-I (= 100%), equivalent masses. Put shortly:
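Activity was expressed as percentage conversion of radiolabelled cholesterol to cholesteryl ester, normalised to native ApoA-I as 100%. LCAT purified from human plasma was added to peptide-preincubated EPC or POPC/cholesterol (20:1) small unilamellar vesicles at pH 7.4. Specific activity is the peptide concentration reaching the conversion plateau at a fixed timepoint.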
Take “Ac-GVLDLFRELLEELKQKLK-NH2 [compound 198]”: the “ACTIVITY (%) LCAT” value worked out at 80%.

Take “Ac-NVLDLFRELLEELKQKLK-NH2 [compound 200]”: the “ACTIVITY (%) LCAT” value was 75%.

With “Ac-PALELFKDLLEEFRQRLK-NH2 [compound 213]”, the “ACTIVITY (%) LCAT” value is reported as 42%.

As to “Ac-PALELFKDLLEELRQKLR-NH2 [compound 202]”, the “ACTIVITY (%) LCAT” value is 70%.

For “Ac-PALELFKDLLEELRQRLK-NH2 [compound 208]”, the “ACTIVITY (%) LCAT” value was determined as 48%.

For “Ac-PLLDLFKELLEELKQKLK-NH2 [compound 201]”, the “ACTIVITY (%) LCAT” value came out at 74%.

For “Ac-PLLELLKELLEELKQKLK-NH2 [compound 206]”, the “ACTIVITY (%) LCAT” value was 57%.

Take “Ac-PVLDFFRELLEELKQKLK-NH2 [compound 204]”: the “ACTIVITY (%) LCAT” value worked out at 63%.

For the substance “Ac-PVLDLFREGLEELKQKLK-NH2 [compound 228]”, the “ACTIVITY (%) LCAT” value stood at 0%.

Consider “Ac-PVLDLFRELGEELKQKLK-NH2 [compound 227]”, for which the “ACTIVITY (%) LCAT” value stood at 0%.

With “Ac-PVLDLFRELLEEGKQKLK-NH2 [compound 229]”, the “ACTIVITY (%) LCAT” value is on record as 0%.

For “Ac-PVLDLFRELLEELKNKLK-NH2 [compound 196]”, the “ACTIVITY (%) LCAT” value came to 81%.

Regarding “Ac-PVLDLFRELLNELLQKLK-NH2 [compound 218]”, the “ACTIVITY (%) LCAT” value turned out to be 29%.

With “Ac-PVLDLFREWLEELKQKLK-NH2 [compound 205]”, the “ACTIVITY (%) LCAT” value stood at 60%.

On to “Ac-PVLDLLRELLEELKQKLK-NH2 [compound 191]”, for which the “ACTIVITY (%) LCAT” value came out at 100%.

Consider “Ac-PVLELFKELLEELKQKLK-NH2 [compound 195]”, for which the “ACTIVITY (%) LCAT” value was 87%.

“Ac-PVLELLKELLEELKQKLK-NH2 [compound 207]”: the “ACTIVITY (%) LCAT” value turned out to be 50%.

For “DWFKAFYDKFFEKFKEFF [peptide 247, reference compound]”, the “ACTIVITY (%) LCAT” value is reported as 3%.

As for “DWFKAFYDKVFEKFKEFF [peptide 241, reference compound]”, the “ACTIVITY (%) LCAT” value came out at 8%.

Turning to “GIKKFLGSIWKFIKAFVG [peptide 242, reference compound]”, the “ACTIVITY (%) LCAT” value is 7%.

In the case of GVLDLFRELLNEGLEALKQKLK [compound 13], the “ACTIVITY (%) LCAT” value stood at 67%.

Take GVLDLFRELLNELLEALKQKLK [peptide 18]: the “ACTIVITY (%) LCAT” value amounted to 58%.

With GVLDLFRELLNELLEALKQKLKK [peptide 2], the “ACTIVITY (%) LCAT” value was 105%.

For GVLELFLNLLERLLDALQKKLK [compound 177], the “ACTIVITY (%) LCAT” value is given as 10%.

With LVLDLFRELLNELLEALKQKLK [compound 59], the “ACTIVITY (%) LCAT” value is on record as 17%.

For PLLELFENLLEKLLDALQKKLK [compound 183], the “ACTIVITY (%) LCAT” value amounted to 6%.

PLLELFENLLERLLDALQKKLK [peptide 150]: the “ACTIVITY (%) LCAT” value is 57%.

Turning to PLLELFKELLQELLEALKQKLK [peptide 23], the “ACTIVITY (%) LCAT” value is reported as 54%.

As to PVFELFENLLERLLDALQKKLK [peptide 152], the “ACTIVITY (%) LCAT” value is given as 50%.

Take PVLDAFRELAEALAQLKK [compound 225]: the “ACTIVITY (%) LCAT” value came out at 1%.

PVLDAFRELGEALLQLKK [compound 226]: the “ACTIVITY (%) LCAT” value was 1%.

PVLDAFRELLEALLQLKK [compound 222]: the “ACTIVITY (%) LCAT” value is reported as 8%.

PVLDEFREKLNEELEALWQKLK [compound 121]: the “ACTIVITY (%) LCAT” value came out at 0%.

Turning to PVLDEFREKLNEELEWLKQKLK [compound 122], the “ACTIVITY (%) LCAT” value turned out to be 0%.

On to PVLDEFREKLNELLEALKQKLK [compound 84], for which the “ACTIVITY (%) LCAT” value amounted to 7%.

With PVLDEFRELLNEELEALKQKLK [compound 103], the “ACTIVITY (%) LCAT” value turned out to be 1%.

With PVLDEFRELLNELLEALKQKLK [compound 79], the “ACTIVITY (%) LCAT” value was determined as 9%.

As for PVLDLFDNLLDRLLDLLNKKLK [compound 173], the “ACTIVITY (%) LCAT” value worked out at 15%.

Turning to PVLDLFENLLERLLDALQKKLK [compound 159], the “ACTIVITY (%) LCAT” value stood at 28%.

In the case of PVLDLFERLLNELLEALQKKLK [compound 80], the “ACTIVITY (%) LCAT” value is reported as 9%.

Regarding PVLDLFKELLQELLEALKQKLK [compound 11], the “ACTIVITY (%) LCAT” value worked out at 72%.

Turning to PVLDLFREGLNELLEALKQKLK [compound 20], the “ACTIVITY (%) LCAT” value came out at 57%.

PVLDLFREGWEELKQKLK [compound 224]: the “ACTIVITY (%) LCAT” value was found to be 8%.

In the case of PVLDLFREKLNEELEALKQKLK [compound 106], the “ACTIVITY (%) LCAT” value was 0%.

Regarding PVLDLFREKLNELLEALKQKLK [compound 33], the “ACTIVITY (%) LCAT” value came to 33%.

Consider PVLDLFRELGNELLEALKQKLK [peptide 9], for which the “ACTIVITY (%) LCAT” value stood at 83%.

On to PVLDLFRELLNEELEALKQKLK [compound 98], for which the “ACTIVITY (%) LCAT” value came out at 2%.

Turning to PVLDLFRELLNELLE [compound 97], the “ACTIVITY (%) LCAT” value was determined as 4%.

For the substance PVLDLFRELLNELLEAGKQKLK [compound 12], the “ACTIVITY (%) LCAT” value was 70%.

As for PVLDLFRELLNELLEALKQKKK [compound 56], the “ACTIVITY (%) LCAT” value was 18%.

In the case of PVLDLFRELLNELLEALQKKLK [peptide 24], the “ACTIVITY (%) LCAT” value is 53%.

Consider PVLDLFRELLNELLEGLKQKLK [compound 22], for which the “ACTIVITY (%) LCAT” value came to 54%.

Consider PVLDLFRELLNELLELLKQKLK [compound 127], for which the “ACTIVITY (%) LCAT” value was 47%.

For PVLDLFRELLNELWQKLK [compound 219], the “ACTIVITY (%) LCAT” value is recorded as 24%.

On to PVLDLFRNLLEELLKALEQKLK [compound 57], for which the “ACTIVITY (%) LCAT” value amounted to 18%.

PVLDLLRELLNELLEALKQKLK [compound 16]: the “ACTIVITY (%) LCAT” value was found to be 59%.

Consider PVLEFFENLLERLLDALQKKLK [compound 157], for which the “ACTIVITY (%) LCAT” value turned out to be 30%.

For the substance PVLELFDNLLDKLLDALQKKLR [compound 180], the “ACTIVITY (%) LCAT” value stood at 8%.

Regarding PVLELFDNLLEKLLEALQKKLR [compound 178], the “ACTIVITY (%) LCAT” value is 9%.

PVLELFDNLLERLLDALQKKLK [compound 179]: the “ACTIVITY (%) LCAT” value was 8%.

Consider PVLELFENGLERLLDALQKKLK [compound 167], for which the “ACTIVITY (%) LCAT” value is given as 18%.

In the case of PVLELFENLGERLLDALQKKLK [peptide 151], the “ACTIVITY (%) LCAT” value turned out to be 55%.

PVLELFENLLEKLLDALQKKLK [compound 169]: the “ACTIVITY (%) LCAT” value was found to be 17%.

Take PVLELFENLLEKLLDLLQKKLK [compound 171]: the “ACTIVITY (%) LCAT” value was found to be 16%.

On to PVLELFENLLEKLLEALQKKLK [compound 182], for which the “ACTIVITY (%) LCAT” value is reported as 7%.

Consider PVLELFENLLERLFDALQKKLK [peptide 147], for which the “ACTIVITY (%) LCAT” value is listed as 76%.

In the case of PVLELFENLLERLLDLLQKKLK [compound 165], the “ACTIVITY (%) LCAT” value came to 23%.

Regarding PVLELFENLLERLLEALQKKLK [compound 161], the “ACTIVITY (%) LCAT” value came to 27%.

Take PVLELFENLLERLLELLNKKLK [compound 175]: the “ACTIVITY (%) LCAT” value stood at 13%.

Turning to PVLELFENLLERWLDALQKKLK [compound 181], the “ACTIVITY (%) LCAT” value is 8%.

Turning to PVLELFEQLLEKLLDALQKKLK [compound 168], the “ACTIVITY (%) LCAT” value is 17%.

PVLELFERLLDELLNALQKKLK [compound 86]: the “ACTIVITY (%) LCAT” value turned out to be 7%.

On to PVLELFKELLEELKQKLK [compound 216], for which the “ACTIVITY (%) LCAT” value is 35%.

Consider PVLELFKELLQELLEALKQKLK [compound 17], for which the “ACTIVITY (%) LCAT” value worked out at 59%.

In the case of PVLELFLNLLEKLLDALQKKLK [compound 166], the “ACTIVITY (%) LCAT” value is given as 22%.

Consider PVLELFLNLLERLGDALQKKLK [compound 172], for which the “ACTIVITY (%) LCAT” value stood at 16%.

Regarding PVLELFLNLLERLLDALQKKLK [compound 156], the “ACTIVITY (%) LCAT” value was 35%.

For the substance PVLELFLNLLERLLDAWQKKLK [compound 184], the “ACTIVITY (%) LCAT” value worked out at 4%.

On to PVLELFLNLLERLLDWLQKKLK [compound 158], for which the “ACTIVITY (%) LCAT” value amounted to 30%.

As for PVLELFLNLWERLLDALQKKLK [peptide 155], the “ACTIVITY (%) LCAT” value came out at 38%.

As for PVLELWENLLERLLDALQKKLK [compound 176], the “ACTIVITY (%) LCAT” value was found to be 11%.

Turning to VLDLFRELLNEGLEALKQKLK [compound 47], the “ACTIVITY (%) LCAT” value is on record as 23%.

For the substance VVLDLFRELLNELLEALKQKLK [compound 53], the “ACTIVITY (%) LCAT” value is on record as 19%.

(Values after US7273848B2, “Apolipoprotein A-I agonists and their use to treat dyslipidemic disorders” (priority 1997, dated 2007).)
